Data taken from paper PMC7481839, “Switchable foldamer ion channels with antibacterial activity” (Chemical Science, 2020).
Where a SMILES comes first, the peptide text is derived from it.

Assay: HPTS assay of ionophoric activity in phospholipid vesicles
Type: biochemical
Conditions: Table S1, HPTS assay
Description: The membrane activity of 1, 2, Cu[1]Cl2 and Cu[2]Cl2 was assessed in phospholipid vesicle membranes using 8-hydroxypyrene-1,3,6-trisulfonate (HPTS) assays. HPTS assays can show ionophoric activity that occurs via any combination of M^+/H^+ antiport, X^–/OH^– antiport, M^+/OH^– symport and X^–/H^+ symport.
The HPTS assays of 1, 2, Cu[1]Cl2 and Cu[2]Cl2 used 1 : 4 cholesterol : egg yolk phosphatidylcholine (EYPC) vesicles in MOPS buffer (pH 7.4) with 100 mM of an appropriate salt (e.g. KCl, KBr, NaCl), following previously reported procedures.[16] The resulting normalised data were fitted to pseudo first-order rate equations as an approximation (see the ESI ^†).[32] Although the change in fluorescence after the “burst phase” is likely to arise from multiple processes, including inter-vesicle transfer of foldamers,[33] this fitting allows the relative effectiveness of each compound to be compared.
CuCl2 was added at 2 min, followed by addition of 2.2 eq. EDTA at 3 min.
5.1 Preparation of large unilamellar vesicles for HPTS assays
The HPTS assays of 1, 2, Cu[1]Cl2 and Cu[2]Cl2 used 1:4 cholesterol:egg yolk phosphatidylcholine (EYPC) vesicles in MOPS buffer (pH 7.4) with 100 mM of an appropriate salt (e.g. KCl, KBr, NaCl).5 Aliquots of 1, 2, Cu[1]Cl2 or Cu[2]Cl2 dissolved in methanol were mixed with the vesicle suspensions for 60 s before adding a base pulse to change the external pH to 8.4.6 The resulting change in HPTS fluorescence was followed for 6 min, then Triton X-100 was added at 7 min to lyse the vesicles […]. Each assay was repeated three times on new vesicles. The resulting normalized data were fitted to pseudo first-order rate equations as an approximation (see the ESI), similar to the procedure of Regen and co-workers.7 Although the change in fluorescence after the “burst phase” is likely to arise from multiple processes, including inter-vesicle transfer of foldamers,8 this fitting allows the relative effectiveness of each compound to be compared.
Egg yolk phosphatidylcholine (EYPC, 64 μmol) and cholesterol (16 μmol) were dissolved in 2 mL chloroform (spectroscopic grade). The solvent was removed under reduced pressure resulting in a thin film of lipid on the inside wall of the round bottom flask, which was dried further under vacuum for 2 hours. 1.2 mL of a trisodium 8-hydroxypyrene-1,3,6-trisulfonate (HPTS, 100 mM, pH = 7.4) dye in (3-(N-morpholino) propanesulfonic acid) buffer (20 mM MOPS, 100 mM MX (M = K or Na, X = Cl, Br or NO3− adjusted to pH 7.4 using NaOH) were added to the lipid film. Afterwards, the thin film was detached from the sides of the flask by vortex mixing. The resulting lipid suspension was then extruded 19 times through an 800 nm polycarbonate membrane in an Avestin Liposofast extruder to give a suspension of 800 nm large unilamellar vesicles. Unencapsulated HPTS dye was removed by gel permeation chromatography on PD-10 SEC columns (Sephadex G-25). Hereby 1 mL of the 800 nm vesicle suspension was diluted to 2.5 mL with 20 mM MOPS buffer solution and loaded onto the GPC column. The suspension run onto the column, followed by 3.5 mL of 20 mM MOPS buffer, which were collected, giving a stock vesicle solution of 3.5 mL (final concentration of lipids = 15.23 mM). This solution of vesicles was used directly in the HPTS experiments.
5.2 Procedure for HPTS assays
100 μL of the vesicle stock solution was diluted to 2 mL with 20 mM MOPS buffer (final lipid concentration in cuvette 0.762 mM). To this vesicle suspension was then added 20 μL of the principle compound in methanol (1 mM or 0.6 mM for Cu[2]Cl2) and the cuvette was equipped with a stirrer bar. The cuvette was […]

## CC(C)(NC(=O)C(C)(C)NC(=O)C(C)(C)NC(=O)C(C)(C)NC(=O)C(C)(C)n1cc(CN(Cc2ccccn2)Cc2ccccn2)nn1)C(=O)NC(C)(C)C(=O)NC(C)(C)C(=O)NC(C)(C)C(=O)OCC[Si](C)(C)C [foldamer 2] (HELM PEPTIDE1{[CC(C)(C(=O)[*:2])n1cc(CN(Cc2ccccn2)Cc2ccccn2)nn1].[Aib].[Aib].[Aib].[Aib].[Aib].[Aib].[Aib].[C[Si](C)(C)CCO[*:1]]}$$$$V2.0)
100 mM KBr, compound 10 µM
  Apparent observed rate constant kobs, KBr: 4.0 10−3 s−1
100 mM KCl, compound 10 µM
  Apparent observed rate constant kobs, KCl: 3.3 10−3 s−1
100 mM KNO3, compound 10 µM
  Apparent observed rate constant kobs, KNO3: 3.2 10−3 s−1
100 mM NaCl, compound 10 µM, methanol control 1 × 10−3 s−1
  Apparent observed rate constant kobs, NaCl: 4.6 10−3 s−1
